Reference: patent US10769242B2, “System and method for data mining very large drugs and clinical effects databases” (Cincinnati Children's Hospital Medical Center, priority 2015, dated 2020)

Assay: AERSMine mining of FAERS reports: lithium toxicity and inversely correlated drugs
Set-up: species or system patients
Details: for safety signal IC for lithium-specific neurological adverse events: human
Excerpt: To establish lithium-adverse event correlation, AERSMine uses multiple quantitative elements such as AE incidence rate, multiple hypothesis testing, relative risk, and safety signals. For this example, the following analytical parameters were used: total reports per adverse event were set to ≥2,000; adverse event and lithium intake co-reported in at least 10 reports; RR set to ≥2; FDR-corrected p-value of <0.001 (Benjamini and Hochberg); and safety signal (i.e., IC) set to >0.
Additionally, by excluding patients with comorbidities (e.g., diabetes) reported to worsen mental health and exacerbate neurological symptoms from the analysis, allows AERSMine to accurately represent potentially lithium-specific adverse events (e.g., aggression, irritability, anger, suicidal tendencies, tremors, and other neurological symptoms, movement disorders, personality changes, etc.). The inventors then sought to determine if AERSMine could identify drugs that are inversely correlated with these adverse events, which may indicate a potential reduction in risk and represent a novel combinatorial strategy to mitigate lithium-related toxicity. […] (no concomitant use with lithium, IC<0, i.e., number of observed events<expected, FDR-corrected p<0.001). To understand how the risks differ across these therapeutic agents, AERSMine additionally allows comparative analyses across multiple drugs or therapeutic classes, which show the differential effects across the inversely correlated drugs.

Compound	number of adverse events significantly correlated with lithium use (of 4,180 adverse events in 22,575 patient reports, RR>=2, FDR p<0.001, IC>0) [adverse events]	safety signal IC for lithium-specific neurological adverse events
[Li] [lithium]	327	–
CCCCc1nc(Cl)c(CO)n1Cc1ccc(-c2ccccc2-c2nn[nH]n2)cc1 [losartan]	–	< 0
CCCCC(=O)N(Cc1ccc(-c2ccccc2-c2nnn[nH]2)cc1)[C@H](C(=O)O)C(C)C [valsartan]	–	< 0
